Source: ChEMBL document CHEMBL1147847, “Evaluation of electronic, lipophilic and membrane affinity effects on antiproliferative activity of 5-substituted-2-(2,4-dihydroxyphenyl)-1,3,4-thiadiazoles against various human cancer cells” (2007)

Tests used:
Format in all cases: functional
[1] = Antiproliferative activity against human HCV29T cells by SRB method
A549 = assay: Antiproliferative activity against human A549 cells by SRB method
T47D = assay: Antiproliferative activity against human T47D cells by SRB method
[2] = Antiproliferative activity against human SW707 cells by SRB method

SMILES: Oc1ccc(-c2nnc(-c3cccc4ccccc34)s2)c(O)c1
- log(1/ID50) [1]: -1.871
- log(1/ID50) (A549): -1.828
- log(1/ID50) (T47D): -1.18
- log(1/ID50) [2]: -1.766

SMILES: Cc1cccc(-c2nnc(-c3ccc(O)cc3O)s2)c1O
- log(1/ID50) [1]: -1.745
- log(1/ID50) (A549): -1.292
- log(1/ID50) (T47D): -1.273
- log(1/ID50) [2]: -1.746

SMILES: Oc1ccc(-c2nnc(-c3ccccn3)s2)c(O)c1
- log(1/ID50) [1]: -2.152

SMILES: COc1cccc(COc2nnc(-c3ccc(O)cc3O)s2)c1
- log(1/ID50) [1]: -0.522
- log(1/ID50) (A549): -1.379
- log(1/ID50) (T47D): -0.958
- log(1/ID50) [2]: -1.18

SMILES: Oc1ccc(-c2nncs2)c(O)c1
- log(1/ID50) [1]: -2.25

SMILES: Oc1ccc(-c2nnc(COc3cccc(F)c3)s2)c(O)c1
- log(1/ID50) [1]: -2.093

SMILES: Oc1ccc(-c2nnc(-c3ccco3)s2)c(O)c1
- log(1/ID50) [1]: -2.178
- log(1/ID50) (A549): <-2.585
- log(1/ID50) (T47D): -2.196
- log(1/ID50) [2]: <-2.585

SMILES: Oc1ccc(-c2nnc(-c3ccncc3)s2)c(O)c1
- log(1/ID50) [1]: <-2.567

SMILES: Oc1ccc(-c2nnc(COc3ccccc3Cl)s2)c(O)c1
- log(1/ID50) [1]: -2.061
- log(1/ID50) (A549): -2.108
- log(1/ID50) (T47D): -1.494
- log(1/ID50) [2]: -2.037

SMILES: Oc1ccc(-c2nnc(-c3ccccc3Br)s2)c(O)c1
- log(1/ID50) [1]: -1.919
- log(1/ID50) (A549): -1.912
- log(1/ID50) (T47D): -1.444
- log(1/ID50) [2]: -1.89

SMILES: Oc1ccc(-c2nnc(-c3ccc(-c4ccccc4)cc3)s2)c(O)c1
- log(1/ID50) [1]: -1.693
- log(1/ID50) (A549): -1.28
- log(1/ID50) (T47D): -1.407
- log(1/ID50) [2]: -1.161

SMILES: Oc1ccc(-c2nnc(-c3ccccc3)s2)c(O)c1
- log(1/ID50) [1]: -2.276

SMILES: CCOc1cccc(-c2nnc(-c3ccc(O)cc3O)s2)c1
- log(1/ID50) [1]: -2.04

SMILES: Oc1ccc(-c2nnc(-c3ccc(O)cc3O)s2)c(O)c1
- log(1/ID50) [1]: -2.045

SMILES: CC(C)(C)c1ccc(-c2nnc(-c3ccc(O)cc3O)s2)cc1
- log(1/ID50) [1]: -1.057
- log(1/ID50) (A549): -1.593
- log(1/ID50) (T47D): -1.088
- log(1/ID50) [2]: -1.139

SMILES: Oc1ccc(-c2nnc(-c3ccccc3O)s2)c(O)c1
- log(1/ID50) [1]: -2.083

SMILES: COc1nnc(-c2ccc(O)cc2O)s1
- log(1/ID50) [1]: -2.343

SMILES: Cc1cc(Cl)ccc1OCc1nnc(-c2ccc(O)cc2O)s1
- log(1/ID50) [1]: -1.816
- log(1/ID50) (A549): -1.964
- log(1/ID50) (T47D): -1.402
- log(1/ID50) [2]: -2.117

SMILES: Oc1ccc(-c2nnc(COc3ccc(F)cc3)s2)c(O)c1
- log(1/ID50) [1]: -1.999

SMILES: O=[N+]([O-])c1ccc(OCc2nnc(-c3ccc(O)cc3O)s2)cc1
- log(1/ID50) [1]: -2.429

SMILES: Oc1ccc(-c2nnc(-c3cc4ccccc4s3)s2)c(O)c1
- log(1/ID50) [1]: -1.848

SMILES: Oc1ccc(-c2nnc(Cc3cccc4ccccc34)s2)c(O)c1
- log(1/ID50) [1]: -1.923
- log(1/ID50) (A549): -1.865
- log(1/ID50) (T47D): -1.629
- log(1/ID50) [2]: -1.926

SMILES: CCOc1ccc(-c2nnc(-c3ccc(O)cc3O)s2)cc1
- log(1/ID50) [1]: -2.016

SMILES: CCOc1nnc(-c2ccc(O)cc2O)s1
- log(1/ID50) [1]: -2.305

SMILES: Oc1ccc(-c2nnc(Cc3ccccc3)s2)c(O)c1
- log(1/ID50) [1]: -2.09

SMILES: CCCCCCCCCCCCCCCc1nnc(-c2ccc(O)cc2O)s1
- log(1/ID50) [1]: <-2.393

SMILES: Oc1ccc(-c2nnc(CCCCc3nnc(-c4ccc(O)cc4O)s3)s2)c(O)c1
- log(1/ID50) [1]: -1.421
- log(1/ID50) (A549): -1.42
- log(1/ID50) (T47D): <-2.354
- log(1/ID50) [2]: -1.025

SMILES: Oc1ccc(-c2nnc(C(O)c3ccccc3)s2)c(O)c1 (stereo not drawn)
- log(1/ID50) [1]: -1.857
- log(1/ID50) (A549): -2.139
- log(1/ID50) (T47D): -2.148
- log(1/ID50) [2]: -2.027

SMILES: Oc1ccc(-c2nnc(COc3ccc(Cl)cc3Cl)s2)c(O)c1
- log(1/ID50) [1]: -2.41

SMILES: COc1cc(-c2nnc(-c3ccc(O)cc3O)s2)cc(OC)c1O
- log(1/ID50) [1]: -2.027

SMILES: OCCCc1nnc(-c2ccc(O)cc2O)s1
- log(1/ID50) [1]: -2.232

SMILES: Oc1cc(O)cc(-c2nnc(-c3ccc(O)cc3O)s2)c1
- log(1/ID50) [1]: -2.182
